Read-outs that look alike come from different tables or passages of the source.
Key:
human α2A‐adrenoceptor [1] = biological target: T1, human α2A‐adrenoceptor (Homo sapiens, UniProt P08913)
T1 sequence (P08913 1-465): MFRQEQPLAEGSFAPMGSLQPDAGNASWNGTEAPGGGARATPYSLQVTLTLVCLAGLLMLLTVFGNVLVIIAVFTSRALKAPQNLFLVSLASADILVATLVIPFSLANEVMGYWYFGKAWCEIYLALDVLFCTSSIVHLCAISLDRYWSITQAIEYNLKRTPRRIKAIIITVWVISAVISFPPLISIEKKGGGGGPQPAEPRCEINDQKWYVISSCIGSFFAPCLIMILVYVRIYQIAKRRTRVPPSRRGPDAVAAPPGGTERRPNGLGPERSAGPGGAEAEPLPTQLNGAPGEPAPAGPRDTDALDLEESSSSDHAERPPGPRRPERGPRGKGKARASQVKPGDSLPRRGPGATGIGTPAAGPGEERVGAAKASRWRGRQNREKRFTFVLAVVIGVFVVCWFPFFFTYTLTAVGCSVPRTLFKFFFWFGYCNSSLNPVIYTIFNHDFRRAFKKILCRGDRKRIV

human α2C‐adrenoceptor [2] = biological target: T2, human α2C‐adrenoceptor (Homo sapiens, UniProt P18825); assay: 3H‐rauwolscine whole cell binding in CHO‐α2C cells; design: expressed in transfected cells; host or cells: CHO-K1 with CRE-SPAP reporter
T2 sequence (P18825 1-462): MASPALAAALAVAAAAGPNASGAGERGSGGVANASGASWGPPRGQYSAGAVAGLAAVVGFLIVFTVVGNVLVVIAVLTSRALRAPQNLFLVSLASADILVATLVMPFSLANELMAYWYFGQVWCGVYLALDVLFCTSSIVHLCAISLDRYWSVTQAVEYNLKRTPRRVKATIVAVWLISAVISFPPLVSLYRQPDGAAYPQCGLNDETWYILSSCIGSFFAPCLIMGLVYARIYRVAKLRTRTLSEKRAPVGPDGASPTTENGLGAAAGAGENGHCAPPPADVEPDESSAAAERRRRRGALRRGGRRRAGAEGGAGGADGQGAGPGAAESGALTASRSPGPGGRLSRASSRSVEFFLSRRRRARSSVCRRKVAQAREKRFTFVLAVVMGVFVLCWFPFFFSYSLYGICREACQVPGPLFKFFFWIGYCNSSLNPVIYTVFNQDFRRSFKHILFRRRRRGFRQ

human α2C‐adrenoceptor [3] = biological target: T2, human α2C‐adrenoceptor
human α2A‐adrenoceptor [4] = biological target: T1, human α2A‐adrenoceptor; assay: ERK1/2‐phosphorylation in CHO‐α2A cells; type: cell-based; design: expressed in transfected cells; host or cells: CHO-K1 with CRE-SPAP reporter
human α2C‐adrenoceptor [5] = biological target: T2, human α2C‐adrenoceptor; assay: ERK1/2‐phosphorylation in CHO‐α2C cells; type: cell-based; design: expressed in transfected cells; host or cells: CHO-K1 with CRE-SPAP reporter
human α2A‐adrenoceptor [6] = biological target: T1, human α2A‐adrenoceptor; assay: 3H‐rauwolscine whole cell binding in CHO‐α2A cells; design: expressed in transfected cells; host or cells: CHO-K1 with CRE-SPAP reporter
[7] = CHO‐α2C cells, CRE‐SPAP production in the absence of forskolin

## C=CCc1ccccc1OC(C)C1=NCCN1 (stereo not drawn) [Allyphenyline]
Human α2A‐adrenoceptor [1]
  % inhibition, CRE‐SPAP (with forskolin): 50.6 ± 6.3%
Human α2C‐adrenoceptor [2]
  Kd: 214 nM
Human α2C‐adrenoceptor [2]; Log KD, CHO‐α2C
  Kd: 214 nM
Human α2C‐adrenoceptor [3]
  % inhibition, CRE‐SPAP (with forskolin): 66.8 ± 4.7%
  IC50: 63.1 nM
  Log EC50 (Gs), CRE‐SPAP (without forskolin): No response
Human α2A‐adrenoceptor [4]
  % 10 μM PDBu, ERK1/2‐phosphorylation: 127.1 ± 13.0%
Human α2C‐adrenoceptor [5]
  % 10 μM PDBu, ERK1/2‐phosphorylation: 134.5 ± 17.9%
  EC50: 11.7 nM

## CCC1(c2cnc[nH]2)Cc2ccccc2C1 [Atipamezole]
Human α2A‐adrenoceptor [1]; CHO‐α2A (cell line 1), absence of forskolin
  Log EC50 (Gs), CRE‐SPAP (without forskolin): No response
Human α2A‐adrenoceptor [1]; CHO‐α2A (cell line 1, 5830 fmol/mg protein), 3 μM forskolin
  Log IC50 (Gi), CRE‐SPAP (with forskolin): No response
Human α2C‐adrenoceptor [3]
  % inhibition, CRE‐SPAP (with forskolin): 15.8 ± 7.5%
  IC50: 200 nM
  Log efficacy ratio (KD/IC50): −1.78
Human α2C‐adrenoceptor [3]; [7]
  Log EC50 (Gs), CRE‐SPAP (without forskolin): No response
Human α2A‐adrenoceptor [4]
  % 10 μM PDBu, ERK1/2‐phosphorylation: 42.4 ± 5.9%
Human α2A‐adrenoceptor [4]; CHO‐α2A, read-out: Log EC50, ERK1/2‐phosphorylation (converted)
  EC50: 28.8 nM
Human α2C‐adrenoceptor [5]
  % 10 μM PDBu, ERK1/2‐phosphorylation: 63.7 ± 8.3%
Human α2C‐adrenoceptor [5]; CHO‐α2C cells, given as negative log EC50, mean ± SEM, read-out: Log EC50, ERK1/2‐phosphorylation (converted)
  EC50: 8.32 nM

## C=CCN1CCc2nc(N)sc2CC1 [BHT920]
Human α2C‐adrenoceptor [2]
  Log KD: −5.99
Human α2C‐adrenoceptor [3]
  % inhibition, CRE‐SPAP (with forskolin): 86.8 ± 6.0%
  Log EC50 (Gs), CRE‐SPAP (without forskolin): No response
  Log IC50 (Gi), CRE‐SPAP (with forskolin): −7.41 ± 0.10
  Log efficacy ratio (KD/IC50): 1.42
Human α2C‐adrenoceptor [5]
  % 10 μM PDBu, ERK1/2‐phosphorylation: 144.8 ± 23.2%
  Log EC50, ERK1/2‐phosphorylation: −8.18 ± 0.12

## CCN1CCc2nc(N)oc2CC1 [BHT933]
Human α2C‐adrenoceptor [2]; CHO‐α2C cells, 3H‐rauwolscine whole cell binding, given as negative log KD, mean only (SEM in Table 4)
  Log KD: −5.32
Human α2C‐adrenoceptor [3]
  Log efficacy ratio (KD/IC50): 0.62
Human α2C‐adrenoceptor [3]; CHO‐α2C cells, % inhibition from the 3 μM forskolin control, mean ± SEM
  % inhibition, CRE‐SPAP (with forskolin): 86.0 ± 4.6%
Human α2C‐adrenoceptor [3]; [7]
  Log EC50 (Gs), CRE‐SPAP (without forskolin): No response
Human α2C‐adrenoceptor [3]; CHO‐α2C cells, inhibition of 3 μM forskolin‐stimulated CRE‐SPAP production, given as negative log IC50, mean ± SEM
  Log IC50 (Gi), CRE‐SPAP (with forskolin): −5.94 ± 0.08
Human α2C‐adrenoceptor [5]; CHO‐α2C cells, maximum response compared to 10 μM PDBu, mean ± SEM
  % 10 μM PDBu, ERK1/2‐phosphorylation: 150.0 ± 19.7%
Human α2C‐adrenoceptor [5]; CHO‐α2C cells, given as negative log EC50, mean ± SEM
  Log EC50, ERK1/2‐phosphorylation: −6.63 ± 0.18

## CC(Cc1ccc(O)cc1)NCC(O)c1cc(O)cc(O)c1 (stereo not drawn) [Fenoterol]
Human α2A‐adrenoceptor [1]
  Log EC50 (Gs), CRE‐SPAP (without forskolin): No response
  Log IC50 (Gi), CRE‐SPAP (with forskolin): No response
Human α2C‐adrenoceptor [2]; Log KD
  Kd: 151000 nM
Human α2C‐adrenoceptor [2]; Log KD (apparent), CHO‐α2C
  Kd: 151000 nM
Human α2A‐adrenoceptor [6]; Log KD (apparent), CHO‐α2A
  Kd: 347000 ± 5010 nM
Human α2A‐adrenoceptor [6]; Log KD (binding)
  Kd: 347000 nM
Human α2C‐adrenoceptor [3]
  Log EC50 (Gs), CRE‐SPAP (without forskolin): No response
  Log IC50 (Gi), CRE‐SPAP (with forskolin): No response

## COc1ccc(CC(C)NCC(O)c2ccc(O)c(NC=O)c2)cc1 (stereo not drawn) [Formoterol]
Human α2A‐adrenoceptor [1]
  Log EC50 (Gs), CRE‐SPAP (without forskolin): No response
  Log IC50 (Gi), CRE‐SPAP (with forskolin): No response
Human α2C‐adrenoceptor [2]
  IC50: > 100000 nM
Human α2C‐adrenoceptor [2]; read-out: IC50 in binding, CHO‐α2C
  IC50: > 100000 nM
Human α2A‐adrenoceptor [6]
  IC50: > 100000 nM
Human α2A‐adrenoceptor [6]; read-out: IC50 in binding, CHO‐α2A
  IC50: > 100000 nM
Human α2C‐adrenoceptor [3]
  Log EC50 (Gs), CRE‐SPAP (without forskolin): No response
  Log IC50 (Gi), CRE‐SPAP (with forskolin): No response

## CC(C)NCC(O)c1ccc(O)c(O)c1 (stereo not drawn) [Isoprenaline]
Human α2C‐adrenoceptor [3]
  % inhibition, CRE‐SPAP (with forskolin): 95.0 ± 5.2%
Human α2C‐adrenoceptor [5]
  % 10 μM PDBu, ERK1/2‐phosphorylation: 130.7 ± 11.1%

## Cc1cccc(C(C)c2cnc[nH]2)c1C (stereo not drawn) [Medetomidine]
Human α2A‐adrenoceptor [1]
  % 3 μM forskolin, CRE‐SPAP (without forskolin): 23.1 ± 4.7%
Human α2C‐adrenoceptor [2]; read-out: Log KD (converted)
  Kd: 32.4 nM
Human α2C‐adrenoceptor [2]; read-out: Log KD, CHO‐α2C (converted)
  Kd: 32.4 nM
Human α2C‐adrenoceptor [3]
  % inhibition, CRE‐SPAP (with forskolin): 86.4 ± 2.1%
  Log EC50 (Gs), CRE‐SPAP (without forskolin): No response
Human α2C‐adrenoceptor [3]; Log IC50 (Gi), CRE‐SPAP (with forskolin)
  IC50: 0.513 nM
Human α2A‐adrenoceptor [4]
  % 10 μM PDBu, ERK1/2‐phosphorylation: 114.1 ± 9.3%
Human α2C‐adrenoceptor [5]
  % 10 μM PDBu, ERK1/2‐phosphorylation: 159.3 ± 16.4%
Human α2C‐adrenoceptor [5]; read-out: Log EC50, ERK1/2‐phosphorylation (converted)
  EC50: 0.195 nM

Reference: PMC9471048, “The signaling and selectivity of α‐adrenoceptor agonists for the human α2A, α2B and α2C‐adrenoceptors and comparison with human α1 and β‐adrenoceptors” (Pharmacology Research & Perspectives, 2022)
